# Assays:
# [1] = Measurement of change in body weight in BLM animal model; assay type: in vivo, mouse; set-up: unit not given here; conditions: BLM mice, first component 10 mg/kg, NIN 60 mg/kg, PID 200 mg/kg
# Protocol: (§1) 70-100 uL of BLM solution (bleomycin 1-3 mg/kg) was administered to a lung of the acclimatized experimental animals using a catheter for 5 days or more. In accordance with the purpose of the test, the test drug was administered 7 days after BLM administration, and the drug was orally administered for 2 weeks until the 21st day of BLM administration.
# The body weight was measured once every 0, 7, 14, 17, and 21 days for 3 weeks, and from the 14th day when the drug effect began to be noticeable after the administration, it was measured every 3 days.
# [2] = tested on: animal model of pulmonary fibrosis; assay: Lung function evaluation (SpO2) in BLM animal model; assay type: in vivo, mouse; conditions: BLM mice, PO, day 21, first component 10 mg/kg, NIN 60 mg/kg, PID 200 mg/kg
# Protocol: as §1
# This lung function evaluation is the most direct and important evaluation index that has the greatest influence on the symptoms and quality of life of patients with pulmonary fibrosis, and is an experiment that can most directly show the effect of improving lung function in an animal model of pulmonary fibrosis by measuring the oxygen concentration in the body.
# On the 21st day, it was measured with a SpO2 measuring device (Berry, Veterinary Pulse Oximeter) via the abdominal side of the mouse, and the results are shown in Table 5 and FIG. 3.
# [3] = tested on: animal model of pulmonary fibrosis; assay: Measurement of total collagen content in lung (INSOLUBLE Collagen Assay); assay type: in vivo, mouse; conditions: BLM mice, PO, day 21, n 9; first component 10 mg/kg, NIN 60 mg/kg, PID 200 mg/kg
# Protocol: as §1
# In this experimental example, analysis was performed using INSOLUBLE Collagen Assay (Biocolor, S2000). After sacrifice on the 21st day, the cryopreserved lung tissue was pulverized by adding 100 uL of Fragmentation Reagent, and then, 100 uL of 37% HCl was added and incubated at 65° C. for 3 hours. The contents of the tube were shaken at 30 minute intervals to aid tissue disintegration. After centrifugation, the concentration was adjusted to 100 μL and collagen staining was proceeded to prepare a sample. Absorbance was measured at 560 nm.
# [4] = tested on: animal model of pulmonary fibrosis; assay: Inflammation cell count analysis in BALF; assay type: in vivo; conditions: BLM mice, PO, day 21; first component 10 mg/kg, NIN 60 mg/kg, PID 200 mg/kg
# Protocol: as §1
# At the sacrifice on the 21st day of administration, BALF (Bronchoalveolar lavage fluid) cells obtained through airway washing of mice were diluted with 1.05×PBS and attached to a slide, and then the slide was immersed and removed for 30 seconds in the order of 1, 2, 3 diff quick stain solution, and stained. It was counted based on 500 cells. Macrophages are the largest in size, mononuclear, and stained blue. Neutrophils and eosinophils form polynuclear cells, but eosinophils are stained red with eosin and distinguished from neutrophils. Lymphocytes have very less cytoplasm and are small in size as monocytes.
# DHLF cell line = assay: Non-clinical anti-fibrotic efficacy: Western blotting of TGF-β treated DHLF cell line; assay type: cell-based; conditions: TGF-β 10 ng/ml, 72 hours
# Protocol: 10 mM of the first component was diluted with DMSO so as to be to 100 uM. It was diluted with DMSO so as to be 10, 3, 1 uM, and 10 mM of the second component (NIN) was diluted with DMSO to be 50 nM.
# A DHLF cell line (FGM™-2 Bullet Kit™, 10% FBS), which is a lung fibrosis cell line, was prepared, and cultured in a T75 Easy Flask Filter at 37° C. and 5% CO2 using FBM medium. The cultured DHLF cell line was treated with 10 ng/mL of TGF-β and the test drug alone or in combination, cultured for 72 hours, then the media was removed, the protein was extracted, and the extracted protein was quantified using the BCA Protein Assay Kit. Based on the quantitative value of each extracted protein, 10 to 20 ug of protein was subjected to Western blotting. The protein after running was transferred to the PVDF membrane. After TBS-T washing 3 times, each PVDF membrane was treated with 1 mL of ECL solution, and then the protein expression level was measured using an AI680 imager. Each band value was calculated as a numerical value normalized compared to β-actin through ImageJ, and is shown in Tables 2 and 3 and FIGS. 1 and 2 below.
# [5] = Drug interaction clinical trial, combined administration; assay type: in vivo, human; conditions: Part 2, healthy adults; first component 150 mg enteric tablet
# Protocol: To evaluate the drug interaction during the combined administration of the first component and the second component, a clinical trial was conducted on a total of 48 healthy adults, divided into two groups of 24 each for Part 1 and Part 2. The clinical trial was designed by a fixed sequence, three-phase, and one 150 mg enteric tablet of the first component was orally administered.
# Subjects enrolled in Part 1 were sequentially given a single dose of 600 mg of the second component (PID) in the phase 1, a single dose of 150 mg of the first component in the phase 2. After that, washout progressed on the 3rd day, and 150 mg of the first component was administered multiple times for 3 days, and in the final phase 3, a single dose of the first component and the second components (NIN) was administered in combination.
# [6] = Table 2, second component (NIN) 50 ng/ml alone
# [7] = Table 3, second component (NIN) 100 ng/ml alone
smiles,measurement,setting,value
"COC(=O)c1ccc2c(c1)NC(=O)/C2=C(\Nc1ccc(N(C)C(=O)CN2CCN(C)CC2)cc1)c1ccccc1 [Second component (NIN), Nintedanib]",change in body weight,[1]; Day 0,0.0
same,change in body weight,[1]; Day 7,−10.1
same,change in body weight,[1]; Day 14,−22.6
same,change in body weight,[1]; Day 17,−20.0
same,change in body weight,[1]; Day 21,−18.2
same,SpO2 Average value,[2],79.8
same,SpO2 Differance,[2]; vs vehicle,3.8
same,SpO2 Rate of increase,[2]; vs vehicle,5%
same,"total collagen content in lung (hydroxyproline value, ratio compared with normal group)",[3],192
same,Eosinophil count in BALF,[4],0
same,Lymphocyte count in BALF,[4],5
same,Macrophage count in BALF,[4],53
same,Neutrophil count in BALF,[4],10
same,total cell in BALF,[4],69 10^4
same,COL1A1 Relative value (based on control),DHLF cell line; [6],4.60
same,SMA-α Relative value (based on control),DHLF cell line; [6],2.63
same,COL1A1 Relative value (based on control),DHLF cell line; [7],2.81
same,SMA-α Relative value (based on control),DHLF cell line; [7],2.99
same,drug interaction when administered in combination with the first component vs alone,[5],no clinically significant drug interaction

# Source: patent US20240238278A1, “Pharmaceutical Composition for Preventing or Treating Fibrosis” (Daewoong Pharmaceutical Co., Ltd., priority 2021, published 2024)
